Source: PMC12498136, “Synthesis and biological evaluation of novel carnosic acid derivatives with anticancer activity” (RSC Advances, 2025)

Key:
Format in all cases: cell-based
[1] = test system: SW480 cells; experiment: Cell cycle assay (PI, flow cytometry)
Procedure: To validate this hypothesis, compound 17 was administered at 6.3 μM to SW480 cells and incubated for 24, 48, and 72 h. Following each incubation period, the cells were fixed and permeabilized with 70% cold ethanol and stained with PI before flow cytometry analysis. At 24 h, compound 17 caused cell cycle arrest at the G0/G1 phase, as evidenced by a significant increase in the percentage of SW480 cells, from 54% in the control group to 66% in the treated group (Fig. 6). […] At 72 h, compound 17 had no impact on the cell cycle of SW480 cells, as observed in Fig. 6.
SW480 cells were seeded, treated, incubated, and collected, as described for the apoptosis assay. After centrifugation, the cells were resuspended in 500 μL DPBS, added dropwise to 4.5 mL of 70% (v/v) cold ethanol, and stored at −20 °C for at least 4 h. Each cell suspension was centrifuged, washed with cold DPBS, and resuspended in 350 μL DPBS and 10 μL RNase (10 mg mL^−1). After 1 h of incubation at 37 °C with agitation, the cells were stained with 20 μL of PI solution (1 mg mL^−1). A Gallios flow cytometer (Beckman Coulter, Brea, CA, USA) at a wavelength of 488 nm was used for FACS analysis. Data from 1 × 10^4 cells were collected, and a multicycle software (Phoenix Flow Systems, San Diego, CA, USA) was used for cell cycle analysis.

[2] = test system: CDK6; experiment: Western blot of CDK6 levels in SW480 cells; conditions: SW480, 6.3 μM, relative to control
Procedure: (§1) SW480 cells were seeded in 6-well plates and treated as described in the previous subsection. After 24, 48 or 72 h of incubation, adherent cells were washed twice with ice-cold DPBS and incubated with lysis buffer (0.2% Triton X-100, 0.5 mM sodium deoxycholate, 1 mM Na-EDTA, 1 mM DTT, 20 mM Tris–HCl (pH 7.5), 0.5% phosphatases inhibitor cocktail, and 1% proteases inhibitor cocktail) for 30 min at 4 °C. The cells were scraped, sonicated, and centrifuged at 120 00 × g (20 min at 4 °C). […] The gels were then transferred to PVDF membranes, which were blocked with 5% skim milk in PBS-Tween-20 (0.1%) for 1 h at room temperature. Subsequently, the membranes were incubated with the primary antibodies for 30 mi at room temperature (actin) or overnight at 4 °C (CDK4, CDK6, cyclin A, Rb and SOD2/MnSOD). After incubation, the membranes were washed with PBS-Tween-20 (0.1%) and incubated with anti-mouse secondary antibody (40 min) or anti-rabbit secondary antibody (1 h) at room temperature. Finally, the membranes were washed with PBS-Tween-20 (0.1%) and treated with the Immobilon Western Chemiluminescent HRP Substrate Kit, and autoradiography was performed using an FPM-100A film processor (Fujifilm, Tokyo, Japan). western blot results were obtained from three independent experiments, except for cyclin A at 24 h (n = 2), Rb protein at 24 and 72 h (n = 2), and SOD2 (MnSOD) at 72 h (n = 2).

[3] = test system: cyclin A; experiment: Western blot of cyclin A levels in SW480 cells; conditions: SW480, 6.3 μM, relative to control
Procedure: as §1

[4] = test system: HCT116 cells; experiment: MTT cell viability assay in HCT116 cells
Procedure: The MTT assay was used to assess the effect of the compounds on cell viability. […] Subsequently, the culture medium was switched with a new medium containing DMSO (control) or the compound at a specified concentration. […] The plates were then incubated for 1 h at 37 °C. After this time, the supernatant was aspirated, and the formazan crystals were dissolved in 100 μL of DMSO in each well. Relative cell viability was calculated by measuring absorbance at 570 nm using a Benchmark Plus Microplate Reader (Bio-Rad Laboratories, Hercules, CA, USA).

[5] = test system: SW620 cells; experiment: MTT cell viability assay in SW620 cells; conditions: Homo sapiens, SW-620, 72 h, read-out: IC50 SW620
Procedure: (§2) The MTT assay was used to assess the effect of the compounds on cell viability. For this purpose, A375 (1500 cells per well), BJ (10 000 cells per well), Caco-2 (4000 cells per well), HCT116 (3000 cells per well), Mia Paca-2 (2000 cells per well), SW480 (6000 cells per well), and SW620 (8000 cells per well) cells were seeded in 96-well plates and incubated for 24 h. Subsequently, the culture medium was switched with a new medium containing DMSO (control) or the compound at a specified concentration. Following a 72 h incubation period, the supernatant was aspirated, and 100 μL of a mixture (1 : 1) of filtered MTT solution (1 mg per mL PBS) and FBS-free medium was added. The plates were then incubated for 1 h at 37 °C. After this time, the supernatant was aspirated, and the formazan crystals were dissolved in 100 μL of DMSO in each well. Relative cell viability was calculated by measuring absorbance at 570 nm using a Benchmark Plus Microplate Reader (Bio-Rad Laboratories, Hercules, CA, USA). Results are presented as the mean ± standard deviation (SD) of IC50 values, determined by nonlinear regression analysis of dose–response curves (log(inhibitor) vs. response with variable slope (four parameters)) using GraphPad Prism 9 software (GraphPad Software, San Diego, CA, USA).

[6] = test system: A375 cells; experiment: MTT cell viability assay in A375 cells; conditions: Homo sapiens, A-375, 72 h, read-out: IC50 A375
Procedure: as §2

[7] = test system: BJ cells; experiment: MTT cell viability assay in non-tumoral BJ fibroblasts
Procedure: as §2

[8] = test system: CDK4; experiment: Western blot of CDK4 levels in SW480 cells; conditions: SW480, 6.3 μM, relative to control
Procedure: as §1

[9] = test system: Mia Paca-2 cells; experiment: MTT cell viability assay in Mia Paca-2 cells; conditions: Homo sapiens, MIA PaCa-2, 72 h, read-out: IC50 Mia Paca-2
Procedure: as §2

Compound: CC(=O)Oc1c(C(C)C)cc2c(c1OC(C)=O)[C@@]1(NC(=O)OCC(C)C)CCCC(C)(C)[C@@H]1CC2 [Compound 17, (4bR,8aS)-8,8-Dimethyl-4b-{[(2-methylpropoxy)carbonyl]amino}-2-(propan-2-yl)-4b,5,6,7,8,8a,9,10-octahydrophenanthrene-3,4-diyl diacetate]
- percentage of SW480 cells in G0/G1 phase ([1]; 6.3 μM, 24 h (control 54%)): 66%
- percentage of SW480 cells in S phase ([1]; 6.3 μM, 48 h (control 30%)): 40%
- effect on the cell cycle ([1]; SW480, 6.3 μM, 72 h): no impact
- CDK6 protein level ([2]; 24 h): significantly reduced
- CDK6 protein level ([2]; 48 h): lower than those in the control group
- cyclin A expression ([3]; 24 h): decrease
- cyclin A expression ([3]; 48 h): did not affect
- fold more active than cisplatin ([4]; HCT116 cells, ratio of IC50 values): 1.2 fold
- IC50 ([4]; Homo sapiens, HCT-116, 72 h, read-out: IC50 HCT116): 17 ± 2 µM
- IC50 [5]: 10 ± 1 µM
- IC50 [6]: 6.7 ± 0.5 µM
- times less potent in BJ cells than in cancer cell lines (selectivity) ([7]; BJ vs cancer cell lines): 3–8 times
- IC50 ([7]; Homo sapiens, BJ, MTT assay, 72 h incubation): > 50 µM
- CDK4 protein level ([8]; 24 h): significantly reduced
- CDK4 protein level ([8]; 48 h): lower than those in the control group
- CDK4 protein level ([8]; 72 h): reduction
- IC50 [9]: 7.5 ± 0.6 µM
